Test results published in patent US9345723B2, “Rapid formation of chitosan sponges using guanosine 5′-diphosphate: injectable scaffolds for tissue regeneration and drug delivery” (THE ROYAL INSTITUTION FOR THE ADVANCEMENT OF …, priority 2012, dated 2016).

Columns and labels:
[1] = test system: 3T3 fibroblasts; assay: Cytotoxicity of GDP and TPP, MTT assay; format: cell-based; conditions: concentrations higher than 5 mM, 24 hours of culture
Experimental: FIG. 3 illustrates the comparison of the cytotoxicity of GDP and TPP at different concentrations; FIG. 3A: light microscopy images of 3T3 fibroblasts with different concentrations of GDP and TPP added to the culture media after 24 hours; FIG. 3B: Quantitative analysis, using MTT assay, of the cytotoxicity of TPP and GDP to 3T3 fibroblasts at different concentrations after 24 hours.
Crosslinking of chitosan using GDP occurs due to the electrostatic attractions between the anionic phosphate groups of GDP and the cationic amine groups of chitosan. Another anionic crosslinker used in the art is tripolyphosphate (TPP), which has been widely used to fabricate chitosan nanoparticles, microparticles and fibers (Pati et al., 2011, Carbohyd Res, 346: 2582). The cytotoxicity of GDP was compared to tripolyphosphate (TPP) at concentrations from 0.05 mM to 50 mM using 3T3 fibroblasts.

[2] = test system: 3T3 fibroblasts; conditions: concentrations higher than 5 mM; recent study (Pati et al., 2012); cited from earlier work

SMILES	cytotoxicity compared to TPP [1]	cytotoxicity [2]
Nc1nc2c(ncn2[C@@H]2O[C@H](COP(=O)(O)OP(=O)(O)O)[C@@H](O)[C@H]2O)c(=O)[nH]1 [GDP, Guanosine 5′-Diphosphate]	significantly less cytotoxic	
O=P(O)(O)OP(=O)(O)OP(=O)(O)O [TPP, tripolyphosphate]		cytotoxicity of TPP at concentrations higher than 5 mM
